{"source": "patent US11149028B2", "about": "“Methods for treating melanoma using small molecules” (NOVA SOUTHEASTERN UNIVERSITY, priority 2016, dated 2021)", "key": {"[1]": {"test_system": "caspase 3/7 in WM266-4 cells", "assay": "Caspase 3/7 activity assay", "type": "cell-based, human", "conditions": "0 and 4 h", "description": "WM266-4 and M14 cells were plated in 384-well plates in 5 μL of complete media (EMEM and RPMI-1640, respectively). 5 μL of 200 μM 2155-14 and 2155-18 were added to the cells. Plates were incubated at 37° C., 5% CO2 and 95% relative humidity for various lengths of time. After incubation, 5 μL of caspase 3/7, caspase 8, and caspase 9 Glo® reagent (Promega cat #: G7570) were added to each well, and incubated for 15 min at room temperature. Luminescence was recorded using a Biotek Synergy H4 multimode microplate reader."}, "WM266-4 cells [2]": {"test_system": "WM266-4 cells", "assay": "Cell staining for autophagy (autophagosome dye)", "type": "cell-based, human", "conditions": "for autophagy staining: 100 μM; for autophagy staining / morphology of unstained cells: 4 and 24 h; for morphology of unstained cells: bright field", "description": "WM266-4 cells were seeded at 10,000 cells/well in 0.1 mL of E-MEM medium supplemented with 10% FBS and 1% penicillin/streptomycin in 96 well plates (Greiner Bio-One CellStar cat #655180) and allowed to adhere overnight. After overnight incubation 100 μM 2155-14, 2155-18, 50 nM hnRNPH2 siRNA or 25 μM 2476-67.2 were added and incubated for various length of time. Cells were rinsed with warm PBS and stained with CYTO-ID® 1.0 Autophagy reagent (Enzo ENZ-51031-0050) and counterstained with DAPI. Cells were imaged using Cytation 5 imager (Biotek Inc, Winooski, Vt.) using GFP and DAPI filter sets. For % autophagic cells calculations cell counts were conducted using DAPI-stained nuclei and Object Sum Area value was obtained from at least 1,000 cells/well using DAPI channels. To obtain number of cells undergoing autophagy the cell count was conducted using GFP channel. Both GFP and DAPI cell counts were conducted using optimized algorithm in automatic mode. 8 replicate wells were used. % autophagic cells was calculated using Equation 1:% autophagic cells=100%*(number of cells, GFP channenumber of cells, DAPI channel)\nTo calculate staining intensity, the Object Sum Area value from GFP channel was obtained and divided by number of cells using DAPI channel. Both GFP and DAPI cell counts were conducted using optimized algorithm in automatic mode. 3 replicate wells were used."}, "HDAC6": {"biological_target": "HDAC6 (Homo sapiens, UniProt Q9UBN7)", "sequence (Q9UBN7 whole entry, species assumed)": "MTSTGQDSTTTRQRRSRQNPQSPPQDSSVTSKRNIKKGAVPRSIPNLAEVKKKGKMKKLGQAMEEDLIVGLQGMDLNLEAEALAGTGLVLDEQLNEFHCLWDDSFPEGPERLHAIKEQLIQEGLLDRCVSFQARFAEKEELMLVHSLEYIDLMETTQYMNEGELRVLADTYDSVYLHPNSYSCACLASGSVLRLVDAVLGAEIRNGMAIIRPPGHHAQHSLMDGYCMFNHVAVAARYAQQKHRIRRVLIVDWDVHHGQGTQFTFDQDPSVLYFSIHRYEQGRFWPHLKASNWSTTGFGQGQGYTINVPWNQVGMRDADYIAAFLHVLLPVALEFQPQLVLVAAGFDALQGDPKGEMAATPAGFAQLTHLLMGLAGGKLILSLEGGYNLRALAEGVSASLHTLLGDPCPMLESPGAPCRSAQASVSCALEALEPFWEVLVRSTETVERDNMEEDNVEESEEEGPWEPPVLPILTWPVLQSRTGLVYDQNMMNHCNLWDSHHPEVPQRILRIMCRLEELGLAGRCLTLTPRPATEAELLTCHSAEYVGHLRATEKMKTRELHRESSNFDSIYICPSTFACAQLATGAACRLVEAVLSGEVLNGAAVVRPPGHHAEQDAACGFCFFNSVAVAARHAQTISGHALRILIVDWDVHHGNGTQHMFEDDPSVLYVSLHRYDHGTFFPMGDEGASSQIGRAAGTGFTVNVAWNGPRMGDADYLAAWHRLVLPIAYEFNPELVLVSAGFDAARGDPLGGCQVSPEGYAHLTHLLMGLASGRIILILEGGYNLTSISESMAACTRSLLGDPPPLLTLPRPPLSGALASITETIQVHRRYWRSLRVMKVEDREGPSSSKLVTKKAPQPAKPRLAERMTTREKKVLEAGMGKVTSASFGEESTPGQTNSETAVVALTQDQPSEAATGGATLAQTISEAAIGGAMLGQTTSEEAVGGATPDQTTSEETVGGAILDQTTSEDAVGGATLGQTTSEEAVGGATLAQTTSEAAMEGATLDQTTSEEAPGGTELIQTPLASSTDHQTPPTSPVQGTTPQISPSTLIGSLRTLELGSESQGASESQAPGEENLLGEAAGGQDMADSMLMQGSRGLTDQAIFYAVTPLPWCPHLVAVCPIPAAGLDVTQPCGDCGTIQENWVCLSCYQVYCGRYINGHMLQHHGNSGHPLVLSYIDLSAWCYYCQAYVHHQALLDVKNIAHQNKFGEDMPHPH", "assay": "HDAC inhibition testing", "type": "biochemical", "conditions": "up to 100 μM"}, "HDAC1": {"biological_target": "HDAC1 (Homo sapiens, UniProt Q13547)", "sequence (Q13547 whole entry, species assumed)": "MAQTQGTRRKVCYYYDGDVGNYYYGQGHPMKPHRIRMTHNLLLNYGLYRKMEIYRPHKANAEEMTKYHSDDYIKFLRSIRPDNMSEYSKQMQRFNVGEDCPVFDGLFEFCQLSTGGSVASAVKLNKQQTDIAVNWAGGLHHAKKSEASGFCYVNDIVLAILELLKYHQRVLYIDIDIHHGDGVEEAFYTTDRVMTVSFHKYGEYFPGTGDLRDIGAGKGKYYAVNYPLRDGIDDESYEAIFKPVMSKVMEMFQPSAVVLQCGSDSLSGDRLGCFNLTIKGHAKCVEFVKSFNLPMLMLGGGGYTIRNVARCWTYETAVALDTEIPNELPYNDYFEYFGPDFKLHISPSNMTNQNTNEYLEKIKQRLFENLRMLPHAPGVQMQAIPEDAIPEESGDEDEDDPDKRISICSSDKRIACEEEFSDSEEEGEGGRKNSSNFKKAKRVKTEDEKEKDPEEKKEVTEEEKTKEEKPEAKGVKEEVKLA", "assay": "HDAC inhibition testing", "type": "biochemical", "conditions": "up to 100 μM"}, "[3]": {"test_system": "MAPK/PI3K dual phosphorylation of WM266-4 cells", "assay": "MAPK-Akt flow cytometry assay", "type": "cell-based, human", "conditions": "48 h, 25 μM", "description": "WM266-4 cells were seeded at 250,000 cells/well in E-MEM medium supplemented with 10% FBS and 1% penicillin/streptomycin in 6 well plates (Greiner Bio-One CellStar cat #655180) and allowed to adhere overnight. After incubation cells were treated with control (25 μM dabrafenib+25 μM trametinib), and 25 μM 2155-14 and 18 for 24 and 48 hours. Manufacturer's instructions for Muse™ PI3K/MAPK Dual Pathway Activation kit (EMD Millipore MCH200108) were followed. Cells were harvested, washed with PBS, and re-suspended in 1× assay buffer supplemented with fixation buffer and incubated on ice for 10 min. Cells were permeabilized with permeablization buffer supplied with the kit and incubated with an antibody cocktail (5 μL of Anti-Akt/PKB+5 μL of Anti-phospho-Akt). Cells were analyzed on Muse flow cytometer (EMD Millipore) using PI3K/MAPK Dual Pathway sub-routine."}, "CHO-K1 cells": {"test_system": "CHO-K1 cells", "assay": "CellTiter-Glo viability assay, CHO-K1 healthy control cells", "type": "cell-based", "conditions": "individual compounds", "description": "Mixture libraries were solubilized in 3% DMSO/H2O and added to polypropylene 384 well plates (Greiner cat #781280). 1,250 CHO-K1, A549, or M14 cells were plated in 384-well plates in 5 μL of serum-free media (F12 for CHO-K1 and A549, DMEM for M14). Test compounds and gefitinib (pharmacological assay control) were prepared as 10-point, 1:3 serial dilutions starting at 300 then added to the cells (5 μL per well) using the Biomek NX^P. Plates were incubated for 72 h at 37° C., 5% CO2 and 95% RH. After incubation, 5 μL of CellTiter-Glo® (Promega cat #: G7570) were added to each well, and incubated for 15 min at room temperature. Luminescence was recorded using a Biotek Synergy H4 multimode microplate reader. Viability was expressed as a percentage relative to wells containing media only (0%) and wells containing cells treated with 1% DMSO only (100%). Three parameters were calculated on a per-plate basis: (a) the signal-to-background ratio (SB); (b) the coefficient for variation [CV; CV=(standard deviation/mean)×100)] for all compound test wells; and (c) the Z′-factor (18). The IC50 value of the pharmacological control (gefitinib, LC Laboratories #G-4408) was also calculated to ascertain the assay robustness. Time course viability assay was performed as described for library screening with luminescence measurements performed at 4, 24, 48, and 72 h."}, "WM266-4 cells [4]": {"test_system": "WM266-4 cells", "assay": "CellTiter-Glo cell viability assay, WM266-4 (including rescue assays)", "type": "cell-based, human", "conditions": "for viability of WM266-4 cells: 24 h after addition", "description": "Cells were plated in 384-well plates in 8 μL of media. Test compounds and dabrafenib (pharmacological assay control) were prepared as 10-point, 1:3 serial dilutions starting at 300 μM, then added to the cells (4 μL per well) using the Biomek Plates were incubated for 72 h at 37° C., 5% CO2 and 95% relative humidity. After incubation, 4 μL of CellTiter-Glo® (Promega cat #: G7570) were added to each well, and incubated for 15 min at room temperature. Luminescence was recorded using a Biotek Synergy H4 multimode microplate reader. Viability was expressed as a percentage relative to wells containing media only (0%) and wells containing cells treated with DMSO only (100%). Three parameters were calculated on a per-plate basis: (a) the signal-to-background ratio (SB); (b) the coefficient for variation [CV; CV=(standard deviation/mean)×100)] for all compound test wells; and (c) the Z′-factor (18). The IC50 value of the pharmacological control (dabrafenib, LC Laboratories #G-4408) was also calculated to ascertain the assay robustness. In case of viability rescue assays, cells were pre-treated with caspase, calpain, and autophagy inhibitors for 1-3 h before addition of test compounds. Time course viability assay was done with luminescence measurements performed at 4, 24, 48, and 72 h."}}, "note": "“Also recorded” adds a separate entry of the source."}
{"smiles": "O=C1NC[C@H](Cc2ccccc2)N(C[C@@H]2CCCN2C[C@@H](CC2CCCCC2)N2C[C@H](Cc3ccc(O)cc3)N(CCc3ccccc3)C(=O)C2=O)C1=O", "note": "[Compound 2155-14, (S)-1((R)-1((S)-2-(((S)-6-benzyl-2,3-dioxopiperazin-1-yl)methyl)pyrrolidin-1-yl)-3-cyclohexylpropan-2-yl)-5-(4-hydroxybenzyl)-4-phenethylpiperazine-2,3-dione]", "values": [{"measurement": "caspase 3/7 activity vs untreated control", "setting": "[1]", "value": "not statistically different from untreated control"}, {"measurement": "autophagy staining", "setting": "WM266-4 cells [2]", "value": "stained positive for autophagy as early as 4 h after compound addition; also recorded: At 24 h the intensity of autophagy staining increased; also recorded: stain positive for autophagy at 4 h"}, {"measurement": "morphology of unstained cells", "setting": "WM266-4 cells [2]", "value": "exhibited traits of apoptosis; also recorded: extensive cell death"}, {"measurement": "cells undergoing autophagy", "setting": "WM266-4 cells [2]; quantitation of representative image, FIG. 18D", "value": 57, "unit": "%"}, {"measurement": "HDAC6 inhibition", "setting": "HDAC6", "value": "lack of HDAC inhibition"}, {"measurement": "HDAC1 inhibition", "setting": "HDAC1", "value": "lack of HDAC inhibition"}, {"measurement": "PI3K-activated cells", "setting": "[3]", "value": "absence of PI3K activation"}, {"measurement": "cells with single pathway activation", "setting": "[3]", "value": "not significantly affected"}, {"measurement": "decrease of cell population with dual pathway activation vs untreated control", "setting": "[3]", "value": "~20", "unit": "%"}, {"measurement": "increase of cells where both pathways were inactive", "setting": "[3]", "value": "approximately 10%"}, {"measurement": "IC50", "setting": "CHO-K1 cells; Cricetulus griseus, CHO-K1", "value": "> 100", "unit": "µM"}, {"measurement": "inhibition of WM266-4 viability", "setting": "WM266-4 cells [4]; 100 μM, 72 h", "value": "completely inhibited viability"}, {"measurement": "viability after pre-incubation with caspase inhibitors", "setting": "WM266-4 cells [4]; 24 h, 10 μM Z-IETD-FMK and Z-VAD-FMK", "value": "almost completely restored"}, {"measurement": "viability of WM266-4 cells", "setting": "WM266-4 cells [4]", "value": "impaired"}, {"measurement": "viability of WM266-4 cells with caspase inhibitor pre-treatment", "setting": "WM266-4 cells [4]; 48 h of exposure", "value": "~25", "unit": "%"}, {"measurement": "IC50", "setting": "WM266-4 cells [4]; 72 h", "value": "4 ± 0.5", "unit": "µM"}, {"measurement": "IC50", "setting": "WM266-4 cells [4]; 72 h, listed as 2529-1", "value": "1.5 ± 0.2", "unit": "µM"}]}
{"smiles": "O=C1NC[C@H](Cc2ccccc2)N(C[C@@H]2CCCN2C[C@H](Cc2ccccc2)N2C[C@H](Cc3ccc(O)cc3)N(CCC34CC5CC(CC(C5)C3)C4)C(=O)C2=O)C1=O", "note": "[Compound 2155-18, (S)-4-(2-(adamantan-1yl)ethyl)-1-((S)-1-((S)-2-(((S)-6-benzyl-2,3-dioxopiperazin-1-yl)methyl)pyrrolidin-1-yl)-3-phenylpropan-2-yl)-5-(4-hydroxybenzyl)piperazine-2,3-dione]", "values": [{"measurement": "caspase 3/7 activity vs untreated control", "setting": "[1]", "value": "not statistically different from untreated control"}, {"measurement": "autophagy staining", "setting": "WM266-4 cells [2]", "value": "did not stain positive for autophagy"}, {"measurement": "morphology of unstained cells", "setting": "WM266-4 cells [2]", "value": "exhibited traits of apoptosis; also recorded: less pronounced than 2155-14"}, {"measurement": "HDAC6 inhibition", "setting": "HDAC6", "value": "lack of HDAC inhibition"}, {"measurement": "HDAC1 inhibition", "setting": "HDAC1", "value": "lack of HDAC inhibition"}, {"measurement": "effect on MAPK/PI3K cell populations", "setting": "[3]", "value": "no effect on either cell population"}, {"measurement": "selectivity over CHO-K1 healthy control cells", "setting": "CHO-K1 cells", "value": "maintaining selectivity for CHO-K1 cells"}, {"measurement": "viability of WM266-4 cells", "setting": "WM266-4 cells [4]", "value": "impaired"}]}
